From paper PMC4607728, “Effect of monovalent cations on the kinetics of hypoxic conformational change of mitochondrial complex I” (Biochimica et Biophysica Acta, 2015) come the findings set out here.

Assay [1] has as its target T1, bovine mitochondrial complex I (proton-translocating NADH:ubiquinone oxidoreductase) (Bos taurus, UniProt P03887+P17694+P42026).
T1 construct: gene NDUFS2; with NADH-ubiquinone oxidoreductase chain 3; NADH dehydrogenase [ubiquinone]; 1 alpha subcomplex subunit 9, mitochondrial; NADH-ubiquinone oxidoreductase chain 2; NADH-ubiquinone oxidoreductase chain 4; NADH-ubiquinone oxidoreductase chain 4L; NADH-ubiquinone oxidoreductase chain 5; NADH-ubiquinone oxidoreductase chain 6; NADH-ubiquinone oxidoreductase 75 kDa subunit, mitochondrial; NADH dehydrogenase [ubiquinone] flavoprotein 1, mitochondrial; NADH dehydrogenase [ubiquinone] flavoprotein 2, mitochondrial; NADH dehydrogenase [ubiquinone] iron-sulfur protein 3, mitochondrial; NADH dehydrogenase [ubiquinone] iron-sulfur protein 8, mitochondrial
Briefly: rate constant of D-to-A activation from lag phase of NADH oxidation, SMP. The format is biochemical. The following applies: D-form of complex I; pH 7.0, SET buffer, no alkali cations; control without EIPA 1.00 ± 0.04 min^-1; 165 μM NADH.

Assay [2] concerns the target T1, bovine mitochondrial complex I (proton-translocating NADH:ubiquinone oxidoreductase). As to the kind of experiment: NADH:Q1 oxidoreductase inhibition, SMP, NADH absorbance at […] nm. Format: biochemical. To be noted: neutral pH (7.0; Figure 7 caption gives NADH-oxidase reaction, A-form); SET buffer, 25 °C, 165 μM NADH; 5-7 min preincubation.

T1 sequence (P17694 34-463): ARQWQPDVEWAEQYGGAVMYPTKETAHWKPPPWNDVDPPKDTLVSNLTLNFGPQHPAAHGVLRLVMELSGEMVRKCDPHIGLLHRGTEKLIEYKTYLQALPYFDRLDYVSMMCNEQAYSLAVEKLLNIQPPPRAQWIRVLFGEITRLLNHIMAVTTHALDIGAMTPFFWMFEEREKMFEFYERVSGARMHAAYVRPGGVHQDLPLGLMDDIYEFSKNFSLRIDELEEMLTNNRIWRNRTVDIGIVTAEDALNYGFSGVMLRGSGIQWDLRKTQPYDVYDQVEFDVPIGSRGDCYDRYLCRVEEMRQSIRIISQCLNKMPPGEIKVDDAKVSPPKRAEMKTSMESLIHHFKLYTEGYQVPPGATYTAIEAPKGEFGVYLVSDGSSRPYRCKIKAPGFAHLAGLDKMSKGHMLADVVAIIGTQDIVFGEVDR
T1 sequence (P42026 38-216): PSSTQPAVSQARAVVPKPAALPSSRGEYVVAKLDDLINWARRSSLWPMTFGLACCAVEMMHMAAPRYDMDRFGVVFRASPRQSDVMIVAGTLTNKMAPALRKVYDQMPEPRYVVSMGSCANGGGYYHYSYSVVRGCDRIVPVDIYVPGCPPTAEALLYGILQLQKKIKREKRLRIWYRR
T1 sequence (P03887 whole entry): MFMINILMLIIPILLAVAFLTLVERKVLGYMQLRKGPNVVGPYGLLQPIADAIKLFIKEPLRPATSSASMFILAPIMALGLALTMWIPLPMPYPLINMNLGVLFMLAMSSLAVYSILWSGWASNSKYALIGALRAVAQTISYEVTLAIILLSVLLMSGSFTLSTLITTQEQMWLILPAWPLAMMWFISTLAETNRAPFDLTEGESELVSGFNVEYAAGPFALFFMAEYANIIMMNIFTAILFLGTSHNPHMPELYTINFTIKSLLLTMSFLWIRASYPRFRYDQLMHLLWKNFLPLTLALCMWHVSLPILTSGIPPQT
T1 sequence (P03898 whole entry partner): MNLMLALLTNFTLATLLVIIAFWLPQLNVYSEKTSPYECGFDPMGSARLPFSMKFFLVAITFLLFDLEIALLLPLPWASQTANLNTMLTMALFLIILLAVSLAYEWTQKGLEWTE
T1 sequence (P34943 36-380 partner): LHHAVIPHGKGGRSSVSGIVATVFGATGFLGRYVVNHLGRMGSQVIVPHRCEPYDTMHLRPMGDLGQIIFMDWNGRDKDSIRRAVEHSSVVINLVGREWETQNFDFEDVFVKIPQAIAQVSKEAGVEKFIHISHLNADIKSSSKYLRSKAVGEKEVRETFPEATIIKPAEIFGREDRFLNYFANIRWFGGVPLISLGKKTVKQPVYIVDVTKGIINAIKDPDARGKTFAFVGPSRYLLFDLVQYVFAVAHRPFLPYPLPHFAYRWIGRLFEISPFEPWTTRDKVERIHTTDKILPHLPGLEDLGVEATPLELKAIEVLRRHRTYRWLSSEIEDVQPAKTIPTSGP

For `CCN(c1nc(N)c(C(=O)NC(=N)N)nc1Cl)C(C)C` [EIPA], in assay [1], the “kD → A at 20 μM EIPA” value was found to be 0.22 ± 0.04 min^− 1. In addition, in assay [2], the IC50 (commonly the concentration at which inhibition is half-maximal) is ~40 µM.
